What was measured:
Type in all cases: in vivo
[1] = system: Abutilon theophrasti; assay: Pre-emergence herbicidal activity, glasshouse pot test; details: pre-emergence spray, rate 1000 g/ha, evaluated after 13 days, scale 0-5
Method: (§1) Seeds of a variety of test species were sown in standard soil in pots. After cultivation for one day (pre-emergence) under controlled conditions in a glasshouse (at 24/16° C., day/night; 14 hours light; 65% humidity), the plants were sprayed with an aqueous spray solution derived from the formulation of the technical active ingredient in acetone/water (50:50) solution containing 0.5% Tween 20 (polyoxyethelyene sorbitan monolaurate, CAS RN 9005-64-5). The test plants were then grown in a glasshouse under controlled conditions (at 24/16° C., day/night; 14 hours light; 65% humidity) and watered twice daily. After 13 days, the test was evaluated (5=total damage to plant; 0=no damage to plant).
(§2) ABUTH=Abutilon theophrasti; SOLNI=Solanum nigrum; AMARE=Amaranthus retroflexus; SETFA=Setaria faberi; ALOMY=Alopecurus myosuroides; ECHCG=Echinochloa crus-galli, ZEAMX=zea mays.

[2] = system: zea mays; assay: as above; details: pre-emergence spray, rate 1000 g/ha, evaluated after 13 days, scale 0-5
Method: as §1, §2

[3] = system: Alopecurus myosuroides; assay: as above; details: pre-emergence spray, rate 1000 g/ha, evaluated after 13 days, scale 0-5
Method: as §1, §2

[4] = system: Amaranthus retroflexus; assay: as above; details: pre-emergence spray, rate 1000 g/ha, evaluated after 13 days, scale 0-5
Method: as §1, §2

[5] = system: Setaria faberi; assay: as above; details: pre-emergence spray, rate 1000 g/ha, evaluated after 13 days, scale 0-5
Method: as §1, §2

[6] = system: Echinochloa crus-galli; assay: as above; details: pre-emergence spray, rate 1000 g/ha, evaluated after 13 days, scale 0-5
Method: as §1, §2

[7] = system: Abutilon theophrasti; assay: Post-emergence herbicidal activity, glasshouse pot test; design: key: 0 = no damage to plant, 5 = total damage to plant; details: Application post-emergence, rate 1000 g/ha, evaluated after 13 days
Method: (§3) Seeds of a variety of test species were sown in standard soil in pots. After 8 days cultivation (post-emergence) under controlled conditions in a glasshouse (at 24/16° C., day/night; 14 hours light; 65% humidity), the plants were sprayed with an aqueous spray solution derived from the formulation of the technical active ingredient in acetone/water (50:50) solution containing 0.5% Tween 20 (polyoxyethelyene sorbitan monolaurate, CAS RN 9005-64-5). The test plants were then grown in a glasshouse under controlled conditions (at 24/16° C., day/night; 14 hours light; 65% humidity) and watered twice daily. After 13 days, the test was evaluated (5=total damage to plant; 0=no damage to plant).
as §2

[8] = system: zea mays; assay: as above; design: key: 0 = no damage to plant, 5 = total damage to plant; details: Application post-emergence, rate 1000 g/ha, evaluated after 13 days
Method: as §3, §2

[9] = system: Alopecurus myosuroides; assay: as above; design: key: 0 = no damage to plant, 5 = total damage to plant; details: Application post-emergence, rate 1000 g/ha, evaluated after 13 days
Method: as §3, §2

[10] = system: Amaranthus retroflexus; assay: as above; design: key: 0 = no damage to plant, 5 = total damage to plant; details: Application post-emergence, rate 1000 g/ha, evaluated after 13 days
Method: as §3, §2

[11] = system: Setaria faberi; assay: as above; design: key: 0 = no damage to plant, 5 = total damage to plant; details: Application post-emergence, rate 1000 g/ha, evaluated after 13 days
Method: as §3, §2

[12] = system: Echinochloa crus-galli; assay: as above; design: key: 0 = no damage to plant, 5 = total damage to plant; details: Application post-emergence, rate 1000 g/ha, evaluated after 13 days
Method: as §3, §2

Compound | ABUTH damage score, application pre-emergence [1] | ZEAMX damage score, application pre-emergence [2] | ALOMY damage score, application pre-emergence [3] | AMARE damage score, application pre-emergence [4] | SETFA damage score, application pre-emergence [5] | ECHCG damage score, application pre-emergence [6] | ABUTH herbicidal damage score [7] | ZEAMX herbicidal damage score [8] | ALOMY herbicidal damage score [9] | AMARE herbicidal damage score [10] | SETFA herbicidal damage score [11] | ECHCG herbicidal damage score [12]
4-chloro-2-hydroxy-1-[5-iodo-4-(trifluoromethyl)-2-pyridyl]-3-methyl-2H-pyrrol-5-one [AF76] | 4 | 1 | 3 | 5 | 5 | 4 | 5 | 1 | 5 | 5 | 5 | 5
4-chloro-2-hydroxy-3-methyl-1-[4-(trifluoromethyl)-5-vinyl-2-pyridyl]-2H-pyrrol-5-one [AF18] | 5 | 2 | 4 | 5 | 4 | 5 | 5 | 2 | 5 | 5 | 5 | 5
6-(4-chloro-2-hydroxy-3-methyl-5-oxo-2H-pyrrol-1-yl)-4-(trifluoromethyl)pyridine-3-carbonitrile [AF3] | 0 | 2 | 3 | 2 | 4 | 4 | 5 | 4 | 5 | 5 | 5 | 5
CCO/C=C\c1cnc(N2C(=O)C(Cl)=C(C)C2O)cc1C(F)(F)F (centres unmarked) [AF1] | 1 | 1 | 1 | 4 | 2 | 2 | 5 | 2 | 5 | 5 | 5 | 5
CC(C)=C(C)c1cnc(N2C(=O)C(Cl)=C(C)C2O)cc1C(F)(F)F (centres unmarked) [AF2] | 1 | 0 | 0 | 3 | 4 | 3 | 5 | 1 | 4 | 5 | 5 | 5
CC1=C(Cl)C(=O)N(c2nccc(C(F)(F)F)c2F)C1O (centres unmarked) [AF5] | 4 | 4 | 4 | 5 | 4 | 4 | 5 | 4 | 5 | 5 | 5 | 5
CC(=O)OC1C(C)=C(Cl)C(=O)N1c1cc(C(F)(F)F)ccn1 (centres unmarked) [AF10] | 5 | 0 | 3 | 5 | 4 | 5 | 5 | 4 | 5 | 5 | 5 | 5
CSc1ccc(N2C(=O)C(Cl)=C(C)C2OC(C)=O)nc1 (centres unmarked) [AF19] | 0 | 0 | 0 | 0 | 0 | 0 | 3 | 1 | 4 | 5 | 3 | 3
CC1=C(Cl)C(=O)N(c2cc(C(C)C)c(C(=O)OC(C)C)cn2)C1O (centres unmarked) [AF23] | 1 | 1 | 4 | 5 | 2 | 5 | 4 | 3 | 4 | 5 | 4 | 5
CC1=C(Cl)C(=O)N(c2cc(C(F)(F)F)c(Br)cn2)C1O (centres unmarked) [AF57, 1-[5-bromo-4-(trifluoromethyl)-2-pyridyl]-4-chloro-2-hydroxy-3-methyl-2H-pyrrol-5-one] | 1 | 0 | 3 | – | 0 | 0 | 5 | 3 | 5 | 5 | 5 | 5

— patent US9963445B2, “Chemical compounds” (SYNGENTA PARTICIPATIONS AG, priority 2013, dated 2018)
